One data set has as its system CA2. Description: siRNA transfection of cells, real time PCR of target gene expression. The format is cell-based. The conditions noted are these: 100 nM siRNA, mean ± SD, normalized to beta-actin. As to the method: (§1) Cells (either NPE, OMDC, or HEK293 cells) were incubated with various siRNA molecules and assayed for expression of the native mRNA corresponding to the siRNA molecule. One day prior to transfection, 2−4×10^5 cells were seeded into each well of a 6 well plate in 3 ml of growth medium (DMEM, 10% serum, antibiotics and glutamine) and incubated under normal growth conditions (37° C. and 5% CO2). Lipofectamine 2000 Reagent (Invitrogen Corporation, Carlsbad, Calif.) was used to transfect the cells with the siRNA molecules. The protocol supplied by the manufacturer was followed. Briefly, siRNA molecules were added to cells that were 30%-50% confluent to a final concentration of 100 nM. Prior to addition to the cells, the siRNA molecule was diluted in 250 μl DMEM and incubated at room temperature for 5 minutes. The siRNA was then mixed with 6 μl of Lipofectamine 2000 Reagent that also had been diluted in 250 μl DMEM and the mixture was incubated at room temperature for 20 minutes. The siRNA/Lipofectamine mixture was added to the cells drop-wise with 2 ml of fresh growth medium low in antibiotics. After swirling the plates to ensure uniform distribution of the transfection complexes, the cells were incubated under normal growth conditions for 24 hours. After incubation with either of the transfection complexes, the medium was removed and replaced with 3 ml of fresh complete growth medium. mRNA was collected from cells at 24, 48 and 72 hours post-transfection.
(§2) After transfection and incubation with a siRNA molecule, total RNA fractions were extracted from cells using protocols well known in the art. The effect of siRNAs on target gene expression was analyzed by real time PCR and semi-quantitative PCR according to standard protocols. Approximately 250 ng of total RNA was used for reverse transcription followed by PCR amplification with specific primers for the target gene in a reaction mixture containing SYBR Green I Dye (Applied Biosystems, Foster City, Calif.). Basic PCR conditions comprised an initial step of […], followed by 40 cycles of 5 s at 95° C., 10 s at 62° C. and 15 s at 72° C. Quantification of beta-actin mRNA was used as a control for data normalization.
(§3) The values represent the mean of the percentage of siRNA interference of each gene expression once normalized with the control cells and their standard deviations.

Data set [1] deals with Normotensive New Zealand White rabbits. Nature of the data set: In vivo rabbit model of IOP (contact tonometer). Particulars: for decrease of IOP over a saline control: figure legends (FIGS. 5-8), 256 μg dose of siRNA per administration. As to the method:
Normotensive New Zealand White rabbits (males, 2-3 kg) were used in the in vivo assays. The animals were kept in individual cages with free access to food and water. Animals were submitted to artificial 12 hours light/darkness cycles to avoid uncontrolled circadian oscillations of IOP and all experiments were performed at the same time of day to control for any fluctuations in IOP due to circadian oscillations. Animal handling and treatment were carried out in accordance with the European Communities Council Directive (86/609/EEC) and the statement of the Association for Research in Vision and Ophthalmology on the Use of Animals in Ophthalmic and Vision Research. Each animal was used for only one experiment.
IOP measurements were done using a contact tonometer (TonoPen XL, Mentor, Norwell, Mass.) due to past success of measuring intraocular pressures within the range of 3 to 30 mm Hg in rabbits (Abrams et al., 1996, Invest Ophthalmol Vis Sci. 37:940-4). Measurements were performed by delicately applying the tonometer's sensor to the corneal surface of the animal. All measurements fell within the 3 to 30 mm Hg interval with the mean baseline value of intraocular pressure being 17.0±0.39 mm Hg for untreated animals (n=100). In order to avoid distress to the animal, rabbits were topically anesthetized (10 μl of oxibuprocaine/tetracaine, 0.4%/1%, in a saline solution (1/4 v:v)) prior to IOP measurement.
Commercially available drugs were typically administered to the animals by instilling a small volume (typically 40 μl) on the corneal surface. Contralateral eyes were treated with the vehicle alone and were used as controls in each experiment.
siRNA molecules or commercially available drugs were typically administered to the animals as follows. Doses of siRNA in saline solution (0.9% w/v) to a final volume of 40 μl were applied to the corneal surface of one eye each day during four consecutive days. The opposite eye was taken as a control and 40 μl of sterile saline (0.9% w/v) was instilled on it at the same time points. Commercially available drugs were typically administered to the animals by instilling a small volume (typically 40 μl) on the corneal surface. Contralateral eyes were treated with the vehicle alone and were used as controls in each experiment. The IOP was measured before each application and at 2 h, 4 h and 6 h following the instillation for 10 days.
The data are summarized in Table 2 where values represent the mean of the normalized maximum percentage of IOP reduction after siRNA treatment and their standard deviations. The decrease in IOP was statistically significant for all the treated targets.

Another data set deals with PTGS1. Nature of the data set: siRNA transfection of cells, real time PCR of target gene expression. The format is cell-based. The conditions noted are these: 100 nM siRNA, mean ± SD. As for the experimental part:
as §1, §2, §3
A general note: Real-time PCR tracks product formation cycle by cycle.

The next data set concerns PTGS2. The data set is described as above. The format is cell-based. Particulars: 100 nM siRNA, mean ± SD. As to the method: as §1, §2, §3

d = 2'-deoxy (DNA)

With “SEQ ID NO: 54: siRNA targeting CA2 (CUUCCCUGAGGAUCCUCAA; 3' dTdT, sugars by position and backbone not given here; listed as Homo sapiens)”, the “% of gene transcript level in control cells” value (“% of gene transcript level” below) in the data set with CA2 (24 h post-transfection) turned out to be 37.97 ± 9.78%; in the data set with CA2 (48 h post-transfection), 61.45 ± 9.62%.
The corresponding values for “SEQ ID NO: 66: siRNA targeting CA2 (CUUCACUUGGUUCACUGGA; 3' dTdT, sugars by position and backbone not given here; listed as Homo sapiens)” are 35.30 ± 9.73% and 51.14 ± 16.49%.
As to “SEQ ID NO: 73: siRNA targeting human carbonic anhydrase II (CA2), 2 thymidine 3' overhang (GGUUGGCAGCGCUAAACCG; 3' dTdT, sugars by position and backbone not given here; listed as Homo sapiens)”, the “% of gene transcript level” value with CA2 (24 h post-transfection) is 76.25 ± 12.60%; with CA2 (48 h post-transfection) it was 84.57 ± 14.70%. Further, in data set [1], the “decrease of IOP over a saline control” value worked out at 25%.
Turning to “SEQ ID NO: 353: siRNA targeting PTGS1 (prostaglandin endoperoxide synthase 1) (CCAUCUCUACCACUGGCAC; 3' dTdT, sugars by position and backbone not given here; listed as Homo sapiens)”, the “% of gene transcript level” value in the data set on PTGS1 (24 h post-transfection) was 42.25 ± 13.76%; in the data set on PTGS1 (48 h post-transfection), 42.68 ± 17.00%.
With “SEQ ID NO: 369: siRNA targeting PTGS1 (CAUUGUCAAGACGGCCACA; 3' dTdT, sugars by position and backbone not given here; listed as Homo sapiens)”, the “% of gene transcript level” value was 34.98 ± 14.33% in the data set on PTGS1 (24 h post-transfection) and 26.30 ± 10.91% in the data set on PTGS1 (48 h post-transfection).
Turning to “SEQ ID NO: 421: siRNA targeting PTGS2 (CACAACAGAGUAUGCGAUG; 3' dTdT, sugars by position and backbone not given here; listed as Homo sapiens)”, the entries for the “% of gene transcript level” value in the data set with PTGS2 (24 h post-transfection) and with PTGS2 (48 h post-transfection) were 81.00 ± 13.54% and 66.85 ± 18.67%, respectively.
For the substance “SEQ ID NO: 426: siRNA targeting PTGS2 (prostaglandin endoperoxide synthase 2) (GCAGGCUAAUACUGAUAGG; 3' dTdT, sugars by position and backbone not given here; listed as Homo sapiens)”, the “% of gene transcript level” value with PTGS2 (24 h post-transfection) stood at 68.68 ± 12.48%; in the data set on PTGS2 (48 h post-transfection), 70.17 ± 19.21%. For the same substance, the “decrease of IOP over a saline control” value in data set [1] was found to be 22%. The “IOP Reduction (% of saline control)” value in data set [1] (mean normalized maximum percentage of IOP reduction ± SD, topical to corneal surface, once daily for four consecutive days) is listed as 23.78 ± 2.27%.
“SEQ ID NO: 477: siRNA targeting PTGS2 (CACUGCCUCAAUUCAGUCU; 3' dTdT, sugars by position and backbone not given here; listed as Homo sapiens)”: the “% of gene transcript level” value turned out to be 75.45 ± 14.71% in the data set on PTGS2 (24 h post-transfection) and 61.83 ± 16.96% in the data set on PTGS2 (48 h post-transfection).

The record behind these values is patent publication US8951982B2, “Methods and compositions for the treatment of eye disorders with increased intraocular pressure” (Sylentis S.A.U., priority 2004, dated 2015).
